{
  "source": "patent US7625911B2",
  "about": "“Amorphous form of erlotinib hydrochloride and its solid amorphous dispersion” (Mai De Ltd., priority 2005, dated 2009)",
  "assay": "Solubility (complete dissolution) of erlotinib hydrochloride in alcohol solvents at elevated temperature",
  "type": "physicochemical",
  "text": "In a first step of the distillation process, crystalline erlotinib hydrochloride is preferably dissolved in an […] solvent; more preferably dissolved in a straight or branched chain C1-C4 alcohol solvent, and most preferably dissolved in methanol or ethanol to form a solution. Erlotinib hydrochloride has the highest solubility in methanol or ethanol, allowing the complete dissolution of erlotinib hydrochloride at elevated temperature.\n(§1) In particular, erlotinib hydrochloride is soluble in methanol at or over 50° C., allowing the complete dissolution of erlotinib hydrochloride in methanol at 50° C. or above with a concentration of 10 mg per milliliter (ml). The use of a relatively concentrated solution, e.g. about 10 mg per ml is therefore preferred for methanol.\nas §1, with “ethanol” for “methanol”, “70°” for “50°”, “[…]” for “50° C. or above”, “ml.” for “milliliter (ml).”, “ethanol.” for “methanol.”\nIn particular, erlotinib hydrochloride is soluble in methanol, ethanol or a mixture of ethanol and water solvents at 45° C.-55° C., allowing the complete dissolution of erlotinib hydrochloride in methanol or ethanol at this elevated temperature with a concentration of about 10 mg per ml. The use of a relatively concentrated solution, e.g. about 10 mg per ml or over is therefore preferred for spraying drying process.",
  "data": [
    {"molecule": "C#Cc1cccc(Nc2ncnc3cc(OCCOC)c(OCCOC)cc23)c1.Cl", "note": "[erlotinib hydrochloride, [6,7-bis(2-methoxy-ethoxy)-quinazolin-4-yl]-(3-ethynyl-phenyl) amine hydrochloride]", "values": [
      {"measurement": "concentration at complete dissolution in ethanol", "setting": "ethanol, soluble at or over 70° C. (sentence also says ambient temperature)", "result": 10, "unit": "mg per ml"},
      {"measurement": "concentration at complete dissolution in methanol", "setting": "methanol, at 50° C. or above", "result": "10 mg per milliliter (ml)"},
      {"measurement": "concentration at complete dissolution in methanol, ethanol or a mixture of ethanol and water", "setting": "methanol, ethanol or ethanol/water mixture, 45° C.-55° C.", "result": "about 10 mg per ml"}
    ]}
  ]
}
